Test system: R. oryzae UCP1295
Assay: Screening of the Pandemic Response Box library at 5 µM
Assay type: cell-based, Rhizopus oryzae
Conditions: 48 h, Table S1, mean of the four values
In short: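 Growth inhibition was read at 600 nm after conidia (2 × 10^5/mL) grew 48 h at 37 °C, 5% CO2, with 5 μM compound in glucose-supplemented (2%), MOPS-buffered RPMI (pH 7.2). Controls were posaconazole at 5 μM and 1% DMSO. The selection cut-off was at least 60% inhibition.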

First: CCCCCCCCCN1C[C@@H](O)[C@H](O)[C@@H](O)[C@@H]1CO [MMV1593513]
Second: Cc1ccc(C)c(OCCCCCCN2C[C@H](O)[C@@H](O)[C@H](O)[C@H]2CO)c1 [MMV1634401]
The “% of growth inhibition, Mean” value of the first is lower: -2.2% for the first, 10.8% for the second.

Going from `CNC(=O)C1O[C@@H](n2cnc3c(NCc4cccc(I)c4)nc(Cl)nc32)[C@H](O)[C@@H]1O` (stereo partly shown) [MMV1593514] to `OCCCCn1cnc2c(O)nc(NCc3ccc(Cl)c(Cl)c3)nc21` [MMV1593542], the “% of growth inhibition, Mean” value falls from -5.2% to -14.0%.

First: CCOC(=O)N[C@@H]1CC[C@@H]2[C@@H](C1)C[C@H]1C(=O)O[C@H](C)[C@H]1[C@H]2/C=C/c1ccc(-c2cccc(F)c2)cn1 [MMV1593515]
Second: O=C(NCc1ccc(F)cc1)c1c(O)c2ncccc2[nH]c1=O [MMV1782097]
The “% of growth inhibition, Mean” value of the first is higher: 26.6% for the first, 3.9% for the second.

Compared with `O=C(O)[C@H]1C2CCC(CC2)[C@@H]1Nc1nc(-c2c[nH]c3ncc(F)cc23)ncc1F` [MMV1593516], `CCc1c(O)nc2ccc(F)cc2c1OCC1CCC1` [MMV1634395] is lower in “% of growth inhibition, Mean” value: -10.6% for the first, -20.7% for the second.

Compared with `O=C(/C=C/n1cnc(-c2cc(C(F)(F)F)cc(C(F)(F)F)c2)n1)NNc1cnccn1` [MMV1593517], `O[C@@](Cn1cnnn1)(c1ccc(F)cc1F)C(F)(F)c1ccc(-c2ccc(OCC(F)(F)F)cc2)cn1` [MMV1634386] is lower in “% of growth inhibition, Mean” value: -8.5% for the first, -15.2% for the second.

First: C[C@@]1(O)[C@H](O)[C@@H](CO)O[C@H]1n1ccc2c(N)ncnc21 [MMV1593519]
Second: Nc1nc2c(ncn2[C@@H]2O[C@H](CO)[C@@H](O)[C@H]2F)c(=O)[nH]1 [MMV1633677]
The “% of growth inhibition, Mean” value of the first is higher: 10.3% for the first, -10.0% for the second.

Going from `[N-]=[N+]=N[C@H]1C[C@H](n2ccc(=O)[nH]c2=O)O[C@@H]1CO` [MMV1593520] to `CC(C)Nc1nc2cc(Cl)c(Cl)cc2n1[C@H]1O[C@@H](CO)[C@H](O)[C@@H]1O` [MMV1593521], the “% of growth inhibition, Mean” value falls from 4.5% to -13.4%.

First: O=C(Nc1ccc(-c2ccccc2)cc1)C1=C(O)C(Cc2ccccc2)OC1=O (stereo not shown) [MMV1593531]
Second: Nc1nc(Nc2ccc3nc(-c4ccc(F)cc4)cc(N)c3c2)cc(-c2ccccc2)n1 [MMV1593541]
The “% of growth inhibition, Mean” value of the first is lower: -29.2% for the first, -21.7% for the second.

Compared with `O=C(Nc1ncc(Cc2cccc3ccccc23)s1)C1CCCCC1` [MMV1593532], `COc1ccc(CNC(=O)C2CCN(C(C)c3cccc4ccccc34)CC2)cc1` (stereo not shown) [MMV1634397] is higher in “% of growth inhibition, Mean” value: -14.7% for the first, -12.7% for the second.

Going from `C[C@H]1[C@@H](c2cccc(C(F)(F)F)c2)OC(=O)N1C(=O)NCc1cncc2ccccc12` [MMV1593533] to `CCc1nc2ccccn2c1C(=O)NCc1ccccc1` [MMV1663457], the “% of growth inhibition, Mean” value rises from -13.8% to -0.4%.

First: CCNC(=O)Nc1cc(-c2ccccc2)c(-c2cncc(C(=O)O)c2)cn1 [MMV1593534]
Second: CCNC(=O)Nc1cc2c(-c3ccnc(C)c3)ccc(CNC(=O)OC)c2cn1 [MMV1634390]
The “% of growth inhibition, Mean” value of the first is lower: -20.0% for the first, -15.7% for the second.

Compared with `CCCCCCC1c2ccc(O)cc2Oc2cc(O)ccc21` [MMV1593535], `O=C1c2cccc3cccc(c23)C(=O)N1CC1CO1` (stereo not shown) [MMV1634360] is lower in “% of growth inhibition, Mean” value: -3.0% for the first, -18.1% for the second.

First: Fc1ccc(-c2nc(-c3c[nH]c4ccc(Br)cc34)[nH]c2-c2ccc(F)cc2)cc1 [MMV1593537]
Second: C[C@@H](c1nc(-c2ccc(C#N)cc2)cs1)[C@](O)(Cn1cncn1)c1ccc(F)cc1F [MMV1634362]
The “% of growth inhibition, Mean” value of the first is higher: -11.7% for the first, -36.2% for the second.

Compared with `Cl.NC1(C(=O)O)CCP(=O)(O)CC1` (stereo not shown) [MMV1593538], `N[C@H]1CCC[C@H]1C(=O)O` [MMV1634361] is lower in “% of growth inhibition, Mean” value: 0.4% for the first, -8.8% for the second.

First: O=[N+]([O-])c1ccc2c(CCc3c[nH]c4ccccc34)c[nH]c2c1 [MMV1593539]
Second: COc1cc(C(C(=O)NC2CCCCC2)N(C(=O)Cc2c[nH]c3ccccc23)c2ccc(C(C)C)cc2)cc(OC)c1OC (stereo not shown) [MMV1593544]
The “% of growth inhibition, Mean” value of the first is higher: -2.0% for the first, -2.6% for the second.

Going from `COc1ccc2cc3[n+](cc2c1OCCN(CCn1cncn1)Cc1ccc(F)cc1F)CCc1cc2c(cc1-3)OCO2` [MMV1593540] to `CNCC(=O)OCc1cccnc1N(C)C(=O)OC(C)[n+]1cnn(C[C@](O)(c2cc(F)ccc2F)[C@@H](C)c2nc(-c3ccc(C#N)cc3)cs2)c1` (stereo partly shown) [MMV1634494], the “% of growth inhibition, Mean” value falls from -0.6% to -14.8%.

Compared with `CC1(C)C[C@H]1C(=O)N/C(=C\CCCCSC[C@@H](N)C(=O)O)C(=O)O.[Na+]` [MMV1613559], `CC(C)c1cc2c(cc1S(=O)(=O)O)[C@@]1(C)CCC[C@@](C)(C(=O)O)[C@@H]1CC2` [MMV1633675] is lower in “% of growth inhibition, Mean” value: -16.6% for the first, -25.5% for the second.

Compared with `NC(=O)[C@@H]1CC[C@@H]2CN1C(=O)N2OS(=O)(=O)O` [MMV1613560], `O=C(c1nc2c(C(F)(F)F)cc(C3CC3)cn2c1Cl)N1CCN([C@H]2CC[C@H](O)CC2)C(=O)C1` [MMV1634396] is higher in “% of growth inhibition, Mean” value: -12.6% for the first, -11.9% for the second.

First: Cc1ncc([N+](=O)[O-])n1CC(O)CN1CCOCC1 (stereo not shown) [MMV1613562]
Second: Cn1cc(NC(=O)c2cc(NC(=O)c3ccc(/C=C/c4cnc5ccccc5c4)cc3)cn2C)cc1C(=O)NCCN1CCOCC1 [MMV1634391]
The “% of growth inhibition, Mean” value of the first is higher: -0.4% for the first, -17.4% for the second.

Going from `COc1cc(Cc2cnc(N)nc2N)c2c(c1OC)OC(C1CC1)C=C2` (stereo not shown) [MMV1613563] to `CCOc1noc2cc(OCCC3CCN(c4ccc(C)nn4)CC3)ccc12` [MMV1634071], the “% of growth inhibition, Mean” value falls from -6.9% to -15.0%.

Going from `C=C[C@]1(C)C[C@@H](OC(=O)CS[C@@H]2C[C@H]3CC[C@@H](C2)N3C)[C@]2(C)[C@H](C)CC[C@]3(CCC(=O)[C@H]32)[C@@H](C)[C@@H]1O` [MMV1633674] to `COc1c(NC(=O)[C@H]2CC[C@@H](COc3ccc([N+](=O)[O-])cc3)CC2)c(F)cc2c(=O)c(C(=O)O)cn(C3CC3)c12` [MMV1633965], the “% of growth inhibition, Mean” value rises from -19.9% to -11.6%.

Going from `CC[C@@]1(O)C(=O)OCc2c1cc1n(c2=O)Cc2cc3c(CN(C)C)c(O)ccc3nc2-1.Cl` [MMV1633678] to `CC(C)(C)c1ccc(OCCn2nc(C(=O)O)c3ccccc3c2=O)cc1` [MMV1634387], the “% of growth inhibition, Mean” value falls from -10.2% to -15.4%.

First: CCc1ccccc1OCCN1CCCCCC1 [MMV1633962]
Second: O=C(NCCN1CCCCC1)c1cccc(C(F)(F)F)c1 [MMV1633964]
The “% of growth inhibition, Mean” value of the first is lower: -12.2% for the first, -2.0% for the second.

Going from `O=C(O)/C=C/C=C/c1cccc(Oc2cc(Cl)cc(Cl)c2)c1` [MMV1633963] to `O=C(/C(=C/c1ccc(Cl)cc1Cl)n1ccnc1)c1ccc(Cl)cc1` [MMV1634491], the “% of growth inhibition, Mean” value falls from 12.3% to -15.1%.

Compared with `Nc1nnnn1CCOc1c2[nH]c3ccc(Cl)cc3c2cc2c1[nH]c1ccc(Cl)cc12` [MMV1633966], `Nc1nc(O)c(Br)c(-c2cccc(Cl)c2)n1` [MMV1645152] is higher in “% of growth inhibition, Mean” value: -30.2% for the first, 4.7% for the second.

First: CCOC(=O)Nc1cc(NC(C)CC(C)CN(CC)CC)c2nc(-c3ccccc3)c(-c3ccccc3)nc2n1 (stereo not shown) [MMV1633967]
Second: Cc1nc2ccc(Oc3ccccc3)cc2c2c1CCN2CCc1ccccc1 [MMV1634399]
The “% of growth inhibition, Mean” value of the first is lower: -28.6% for the first, -16.3% for the second.

Going from `Nc1nc(-c2ccccc2)nc2[nH]nc(Nc3ccc(C(F)(F)F)cc3)c12` [MMV1633968] to `Nc1nc(C(F)(F)F)cc2c1[nH]c(=O)n2Cc1ccccc1` [MMV1634389], the “% of growth inhibition, Mean” value rises from 4.3% to 10.3%.

Going from `O=C(O)c1ccc(-c2ccc(O[C@H]3O[C@H](CO)[C@@H](O)[C@H](O)[C@@H]3O)cc2)cc1` [MMV1633970] to `CS(=O)(=O)c1ccc(Oc2ccc(Cl)cc2)cc1` [MMV1634404], the “% of growth inhibition, Mean” value rises from -12.3% to 4.1%.

Compared with `CCC(C)(C)c1ccc(CC(C)CN2C[C@@H](C)O[C@@H](C)C2)cc1.Cl` (stereo partly shown) [MMV1634358], `CCOc1ccc(/C=N/NC(=O)C2CC2c2ccc(C(C)(C)C)cc2)cc1OCC` (stereo not shown) [MMV1634398] is higher in “% of growth inhibition, Mean” value: -26.0% for the first, 4.7% for the second.

Compared with `CN(C/C=C/C#CC(C)(C)C)Cc1cccc2ccccc12` [MMV1634359], `CC(C)(C)c1ccc(C(Cn2cccc(C(F)(F)F)c2=O)NC2Cc3ccccc3C2)cc1` (stereo not shown) [MMV1634393] is higher in “% of growth inhibition, Mean” value: -42.5% for the first, -0.4% for the second.

First: OB1OCc2cc(Cl)ccc21 [MMV1634363]
Second: Clc1cc(Cl)c2c(c1)CCc1ccccc1C2n1ccnc1 (stereo not shown) [MMV1634492]
The “% of growth inhibition, Mean” value of the first is higher: -17.9% for the first, -30.6% for the second.

First: CCc1cc(Nc2cc(=O)n(CCN3CCN(C(=O)c4ccccc4)CC3)c(=O)[nH]2)ccc1C [MMV1634383]
Second: COc1cc(C2C3=C(CC(C)(C)CC3=O)Nc3ccccc3N2C(C)=O)ccc1OCc1ccccc1 (stereo not shown) [MMV1634557]
The “% of growth inhibition, Mean” value of the first is higher: -3.9% for the first, -15.9% for the second.

First: CCN(CC)S(=O)(=O)c1ccc(Cl)c(C(=O)Nc2sc3c(c2C#N)CCCC3)c1 [MMV1634384]
Second: CCCCc1ccc(-c2nc(C)c(C(=O)OC)s2)cc1 [MMV1634392]
The “% of growth inhibition, Mean” value of the first is lower: -5.0% for the first, -3.4% for the second.

Going from `Nc1ccc(-c2nc3cc(C(F)(F)F)ccc3n2C23CC4CC(CC(C4)C2)C3)cc1` [MMV1634385] to `Cc1ccc(N2CCC(CCOc3ccc(S(C)(=O)=O)cc3)CC2)nn1` [MMV1634394], the “% of growth inhibition, Mean” value rises from -6.2% to 3.3%.

Compared with `CC(C)N(c1cc(-c2ccccc2)sc1C(=O)O)C(=O)[C@H]1CC[C@H](C)CC1` [MMV1634388], `Cc1ccc(Oc2ccccc2-c2csc(N=C3NCCCN3)n2)c(C)c1` [MMV1634493] is lower in “% of growth inhibition, Mean” value: -4.7% for the first, -30.7% for the second.

Going from `NC(N)=NCCCCC(=O)Nc1cc(C(F)(F)F)cc(NC(=O)c2cc(C(=O)Nc3cc(C(F)(F)F)cc(NC(=O)CCCCN=C(N)N)c3O[C@@H]3CCNC3)ncn2)c1O[C@@H]1CCNC1` [MMV1634402] to `CCc1cc(CCCOc2c(C)cc(-c3noc(C(F)(F)F)n3)cc2C)on1` [MMV1634556], the “% of growth inhibition, Mean” value rises from -4.8% to 10.0%.

`O=[N+]([O-])/C(Br)=C/c1ccc(Br)o1` [MMV1645051] was tested, and the “% of growth inhibition, Mean” value was -39.6%.
